According to patent US20230192705A1, “SHP2 INHIBITORS, COMPOSITIONS AND USES THEREOF” (Betta Pharmaceuticals Co., Ltd, priority 2020, published 2023):

Target: T1, SHP2 (Homo sapiens, UniProt Q06124)
T1 sequence (Q06124 1-593): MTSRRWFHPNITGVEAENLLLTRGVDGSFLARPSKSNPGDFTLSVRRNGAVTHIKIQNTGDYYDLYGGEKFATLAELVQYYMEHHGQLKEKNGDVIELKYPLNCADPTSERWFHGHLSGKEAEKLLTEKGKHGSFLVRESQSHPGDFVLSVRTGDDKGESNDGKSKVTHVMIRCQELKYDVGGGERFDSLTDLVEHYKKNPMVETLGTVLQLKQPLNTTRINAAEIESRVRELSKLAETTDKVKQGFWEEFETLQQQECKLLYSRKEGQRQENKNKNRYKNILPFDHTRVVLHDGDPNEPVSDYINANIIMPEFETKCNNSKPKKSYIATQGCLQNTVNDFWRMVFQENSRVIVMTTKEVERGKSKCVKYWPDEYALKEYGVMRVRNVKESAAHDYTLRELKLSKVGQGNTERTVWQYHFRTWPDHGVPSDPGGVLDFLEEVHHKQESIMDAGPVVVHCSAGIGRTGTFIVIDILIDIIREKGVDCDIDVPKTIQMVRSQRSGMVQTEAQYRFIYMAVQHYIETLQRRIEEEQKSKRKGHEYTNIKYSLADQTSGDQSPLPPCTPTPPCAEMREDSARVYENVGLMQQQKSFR
Assay: SHP2 allosteric inhibitor enzyme activity assay (DiFMUP fluorescence)
Format: biochemical
Conditions: class symbols
Procedure, shortened: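 SHP2 activated by 0.5 μM IRS1_pY1172(dPEG8)pY1222 peptide, 0.2 ng enzyme per well, 1 h at room temperature with compound (1 μM top, 3-fold series), then DiFMUP substrate 1 h. Buffer: 60 mM HEPES, 75 mM NaCl, 75 mM KCl, 0.05% BRIJ-35, 1 mM EDTA, 5 mM DTT. Fluorescence ex 340/em 450 nm; IC50 by variable-slope fit.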

| Structure (SMILES) | IC50 |
| --- | --- |
| N[C@@H]1c2ccccc2CC12CCN(c1nc3[nH]nc(C4(c5ccnc(C(F)(F)F)c5)CC4)c3c(=O)[nH]1)CC2 [Example 27, (S)-6-(1-amino-1,3-dihydrospiro[indene-2,4′-piperidin]-1′-yl)-3-(1-(2-(trifluoromethyl)pyridin-4-yl)cyclopropyl)-1,5-dihydro-4H-pyrazolo[3,4-d]pyrimidin-4-one] | ≤ 20 nM |
| CC1(C)C=C(c2n[nH]c3nc(N4CCC5(CC4)Cc4ccccc4[C@H]5N)[nH]c(=O)c23)c2cn(CC(F)(F)F)nc2C1 [Example 154, (S)-6-(1-amino-1,3-dihydrospiro[indene-2,4′-piperidin]-1′-yl)-3-(6,6-dimethyl-2-(2,2,2-trifluoroethyl)-6,7-dihydro-2H-indazol-4-yl)-1,5-dihydro-4H-pyrazolo[3,4-d]pyrimidin-4-one] | ≤ 20 nM |
| N#Cc1ccc2c(c1)C(c1n[nH]c3nc(N4CCC5(CC4)Cc4ccccc4C5N)[nH]c(=O)c13)=CCC2(F)F (centres unmarked) [Example 126] | ≤ 20 nM |
| N[C@@H]1c2ccccc2CC12CCN(c1nc3[nH]nc(C4(c5ccnc(OC(F)F)c5)CC4)c3c(=O)[nH]1)CC2 [Example 53, (S)-6-(1-amino-1,3-dihydrospiro[indene-2,4′-piperidin]-1′-yl)-3-(1-(2-(difluoromethoxy)pyridin-4-yl)cyclopropyl)-1,5-dihydro-4H-pyrazolo[3,4-d]pyrimidin-4-one] | ≤ 20 nM |
| C[C@@H]1OCC2(CCN(c3nc4[nH]nc(C5(c6ccc(OC(F)(F)F)cc6)CC5)c4c(=O)[nH]3)CC2)[C@@H]1N [Example 307, 6-((3S,4S)-4-amino-3-methyl-2-oxa-8-azaspiro[4.5]decan-8-yl)-3-(1-(4-(trifluoromethoxy)phenyl)cyclopropyl)-1,5-dihydro-4H-pyrazolo[3,4-d]pyrimidin-4-one] | 20 to 60 nM |
| N[C@@H]1c2ccccc2CC12CCN(c1nc3[nH]nc(C4=CCCc5nc(C6CC6)cc(C(F)(F)F)c54)c3c(=O)[nH]1)CC2 [Example 141, (S)-6-(1-amino-1,3-dihydrospiro[indene-2,4′-piperidin]-1′-yl)-3-(2-cyclopropyl-4-(trifluoromethyl)-7,8-dihydroquinolin-5-yl)-1,5-dihydro-4H-pyrazolo[3,4-d]pyrimidin-4-one] | 20 to 60 nM |
| C[C@@H]1OCC2(CCN(c3nc4[nH]nc(C5(c6ncco6)CC5)c4c(=O)[nH]3)CC2)[C@@H]1N [Example 279, 6-((3S,4S)-4-amino-3-methyl-2-oxa-8-azaspiro[4.5]decan-8-yl)-3-(1-(oxazol-2-yl)cyclopropyl)-1,5-dihydro-4H-pyrazolo[3,4-d]pyrimidin-4-one] | 20 to 60 nM |
| N#Cc1cc(C2(c3n[nH]c4nc(N5CCC6(CC5)Cc5ccccc5[C@H]6N)[nH]c(=O)c34)CC2)ccn1 [Example 26, (S)-4-(1-(6-(1-amino-1,3-dihydrospiro[indene-2,4′-piperidin]-1′-yl)-4-oxo-4,5-dihydro-1H-pyrazolo[3,4-d]pyrimidin-3-yl)cyclopropyl)picolinonitrile] | ≤ 20 nM |
| N[C@@H]1c2ccccc2CC12CCN(c1nc3[nH]nc(C4=CS(=O)(=O)Nc5ccccc54)c3c(=O)[nH]1)CC2 [Example 183, (S)-6-(1-amino-1,3-dihydrospiro[indene-2,4′-piperidin]-1′-yl)-3-(2,2-dioxido-1H-benzo[c][1,2]thiazin-4-yl)-1,5-dihydro-4H-pyrazolo[3,4-d]pyrimidin-4-one] | ≤ 20 nM |
| N[C@@H]1c2ccccc2CC12CCN(c1nc3[nH]nc(C4=CC(F)(F)c5ccccc54)c3c(=O)[nH]1)CC2 [Example 175, (S)-6-(1-amino-1,3-dihydrospiro[indene-2,4′-piperidin]-1′-yl)-3-(1,1-difluoro-1H-inden-3-yl)-1,5-dihydro-4H-pyrazolo[3,4-d]pyrimidin-4-one] | ≤ 20 nM |
| CC1(C)C=C(c2n[nH]c3nc(N4CCC5(CC4)Cc4ccccc4[C@H]5N)[nH]c(=O)c23)c2cn(C3CC3)nc2C1 [Example 155, (S)-6-(1-amino-1,3-dihydrospiro[indene-2,4′-piperidin]-1′-y1)-3-(2-cyclopropyl-6,6-dimethyl-6,7-dihydro-2H-indazol-4-yl)-1,5-dihydro-4H-pyrazolo[3,4-d]pyrimidin-4-one] | 20 to 60 nM |
| Cc1cccc(C2(c3n[nH]c4nc(N5CCC6(CC5)CO[C@@H](C)[C@H]6N)[nH]c(=O)c34)CC2)n1 [Example 319, 6-((3S,4S)-4-amino-3-methyl-2-oxa-8-azaspiro[4.5]decan-8-yl)-3-(1-(6-methylpyridin-2-yl)cyclopropyl)-1,5-dihydro-4H-pyrazolo[3,4-d]pyrimidin-4-one] | > 60 nM |
| COc1cc(F)cc(C2(c3n[nH]c4nc(N5CCC6(CC5)CO[C@@H](C)[C@H]6N)[nH]c(=O)c34)CC2)c1 [Example 288, 6-((3S,4S)-4-amino-3-methyl-2-oxa-8-azaspiro[4.5]decan-8-yl)-3-(1-(3-fluoro-5-methoxyphenyl)cyclopropyl)-1,5-dihydro-4H-pyrazolo[3,4-d]pyrimidin-4-one] | > 60 nM |
| N[C@@H]1c2ccccc2CC12CCN(c1nc3[nH]nc(C4(c5ccnc(CN6CCCC6)c5)CC4)c3c(=O)[nH]1)CC2 [Example 55, (S)-6-(1-amino-1,3-dihydrospiro[indene-2,4′-piperidin]-1′-yl)-3-(1-(2-(pyrrolidin-1-ylmethyl)pyridin-4-yl)cyclopropyl)-1,5-dihydro-4H-pyrazolo[3,4-d]pyrimidin-4-one] | 20 to 60 nM |
| N[C@@H]1c2ccccc2CC12CCN(c1nc3[nH]nc(C4(c5ccncc5F)CC4)c3c(=O)[nH]1)CC2 [Example 58, (S)-6-(1-amino-1,3-dihydrospiro[indene-2,4′-piperidin]-1′-yl)-3-(1-(3-fluoropyridin-4-yl)cyclopropyl)-1,5-dihydro-4H-pyrazolo[3,4-d]pyrimidin-4-one] | ≤ 20 nM |
| CC(=O)N1CC(F)(F)c2c1cccc2C1(c2n[nH]c3nc(N4CCC5(CC4)Cc4ccccc4[C@H]5N)[nH]c(=O)c23)CC1 [Example 60, (S)-3-(1-(1-acetyl-3,3-difluoroindolin-4-yl)cyclopropyl)-6-(1-amino-1,3-dihydrospiro[indene-2,4′-piperidin]-1′-yl)-1,5-dihydro-4H-pyrazolo[3,4-d]pyrimidin-4-one] | ≤ 20 nM |
| CC1(C)C=C(c2n[nH]c3nc(N4CCC5(CC4)Cc4ccccc4C5N)[nH]c(=O)c23)c2sc(N)nc2C1 (centres unmarked) [Example 130, 6-(1-amino-1,3-dihydrospiro[indene-2,4′-piperidin]-1′-yl)-3-(2-amino-5,5-dimethyl-4,5-dihydrobenzo[d]thiazol-7-yl)-1,5-dihydro-4H-pyrazolo[3,4-d]pyrimidin-4-one] | 20 to 60 nM |
| CN1CC=C(c2n[nH]c3nc(N4CCC5(CC4)Cc4ccccc4[C@H]5N)[nH]c(=O)c23)c2ccccc21 [Compound 178, (S)-6-(1-amino-1,3-dihydrospiro[indene-2,4′-piperidin]-1′-yl)-3-(1-methyl-1,2-dihydroquinolin-4-yl)-1,5-dihydro-4H-pyrazolo[3,4-d]pyrimidin-4-one, reference compound] | ≤ 20 nM |
| C[C@@H]1OCC2(CCN(c3nc4[nH]nc(C5(c6cccnc6)CC5)c4c(=O)[nH]3)CC2)[C@@H]1N [Example 275, 6-((3S,4S)-4-amino-3-methyl-2-oxa-8-azaspiro[4.5]decan-8-yl)-3-(1-(pyridin-3-yl)cyclopropyl)-1,5-dihydro-4H-pyrazolo[3,4-d]pyrimidin-4-one] | 20 to 60 nM |
| Cc1nc2c(s1)C(c1n[nH]c3nc(N4CCC5(CC4)Cc4ccccc4C5N)[nH]c(=O)c13)=CC(C)(C)C2 (centres unmarked) [Example 129] | 20 to 60 nM |
